Patent US8128963B2, “Methods for treating ischemic disorders using carbon monoxide” (The Trustees of Columbia University in the City Of New York, priority 1999, dated 2012)

Key:
acute ischemic stroke = conditions: cited from earlier work
[1] = test system: murine model of focal cerebral ischemia; assay: Murine focal cerebral ischemia, carbon monoxide inhalation and heme oxygenase blockade; format: in vivo, mouse; conditions: for infarct volume / mortality: vs controls
Protocol: FIGS. 23A and 23B. FIG. 23A. The effect of carbon monoxide inhalation on cerebral infarct volumes. Mice were placed in bell jars, in which they were exposed to 0.1% CO for 12 hours. After this treatment, they were removed from the bell jars and subjected to intraluminal occlusion of the middle cerebral artery. At 24 hours, animals were sacrificed and infarct volumes measured by triphenyltetrazolium chloride (TTC) staining as shown in FIG. 25. Quantification of infarction volumes (mean±SEM) is expressed as the percent of infarction of the ipsilateral hemisphere.
Protoporphyrin preparation and administration. Tin protoporphyrin IX dichloride (20 mg, Porphyrin Products, Logan, Utah), zinc protoporphyrin IX (17 mg, Porphyrin Products, Logan, Utah), or biliverdin (18 mg, Porphyrin Products, Logan, Utah) was initially dissolved in dimethyl sulfoxide (2 mL). An aliquot of this solution (200 μL) was added to normal saline (9.8 mL) and this mixture was vortexed vigorously to yield a 2.7×10^−4 M solution of the protoporphyrin. The solution container was wrapped in aluminum foil to prevent photolysis of the protoporphyrin and stored at 4° C. until used.
Micro-osmotic pumps (#1003D, Alza Corp., Palo Alto, Calif.) were loaded with this protoporphyrin solution (91 μL/pump) and implanted subcutaneously in the anesthetized mouse via a 1 cm dorsal midline incision 24 h prior to the start of surgery. These pumps administer drug solution at a rate of 0.95±0.02. μL/h. At the time of surgery an additional dose of the protoporphyrin solution was administered (0.3 mL, i.v.) prior to insertion of the intralumenal occluding catheter. Each animal received the following total (injection+pump) drug amounts over the course of the study tin protoporphyrin (0.070 mg), zinc protoporphyrin (0.059 mg), or biliverdin (0.061 mg).

Human umbilical vein ECs = assay: vWF release from hypoxic endothelial cells (ELISA); format: cell-based
Protocol: Endothelial cell culture and exposure of cells to H or H/R. Human umbilical vein ECs were prepared from umbilical cords and grown in culture by the method of Jaffe (16) as modified by Thornton (17). Experiments utilized confluent ECs (passages 1-4) grown in Medium 199 supplemented with fetal bovine serum (15%; Gemini, Calabasas, Calif.), human serum (5%; Gemini), endothelial growth supplement (Sigma, St. Louis, Mo.), heparin (90 μg/ml; Sigma) and antibiotics, as described (17). When ECs achieved confluence, experiments were performed by placing cultures in an environmental chamber (Coy Laboratory Products, Ann Arbor, Mich.) which provided a controlled temperature (37° C.) and atmosphere with the indicated amount of oxygen, carbon dioxide (5%) and the balance made up of nitrogen. Use of this chamber for cell culture experiments has been described previously (15,18). During exposure of ECs to hypoxia (for a maximum of 16 hours), the oxygen tension in the culture medium was 14-18 torr and there was no change in the medium pH. Reoxygenation was performed by placing ECs in an ambient atmosphere containing carbon dioxide (5%) at 37° C.
Measurement of Weibel-Palade body exocytosis: ECs were plated into 24 well plates, rinsed 3 times with Hank's balanced salt solution, and then exposed to hypoxia or to normoxia for the indicated durations. For experiments in which vWF was measured, cells were maintained in serum-free medium. All other EC experiments were performed in the EC growth medium described above. For measurement of vWF, 200 μL aliquots of culture supernatant was removed at the indicated times, and a commercially available ELISA (American Diagnostica, Greenwich, Conn.), based on a polyclonal goat anti-human vWF antibody, was performed on duplicate specimens, with a standard curve generated using purified human vWF antigen supplied by the same vendor. EC P-selectin expression was determined by measuring the specific binding of a murine monoclonal anti-human P-selectin antibody (WAPS 12.2 clone, Endogen, Cambridge, Mass.; this is an IgGl which recognizes a calcium sensitive epitope and blocks P-selectin dependent neutrophil adhesion. Antibody was radiolabelled with ^125I by the lactoperoxidase method (19) using Enzymobeads (Bio-Rad, Hercules, Calif.), stored at 4° C. and used within one week of labelling. Binding assays were performed on HUVECs plated on 96 well plates, in which fresh M199 with 0.1% bovine serum albumin (Sigma, St. Louis, Mo.) was added immediately prior to each experiment. Cells were placed in a humidified environment at 37° C., and exposed to normoxia or H (in the presence or absence of 50 μM probucol, as indicated, Sigma) for the indicated durations. Cell monolayers were fixed for 15 min. with 1% paraformaldehyde^10 (cells exposed to H were fixed while still within the hypoxic environment), visually inspected to ensure that the monolayers remained intact, and washed twice with HBSS containing 0.5% bovine serum albumin (HBSS/A). Monolayers were then exposed to 10^5 cpm of ^125I-labelled anti-P-selectin antibody (WAPS 12.2) in the presence of 200 μg/mL of either unlabelled blocking antibody (WAPS 12.2) or nonblocking anti-P-selectin IgG of the same isotype (anti-GMP-140, AC1.2 clone, Becton-Dickinson, San Jose, Calif.) (20,21). After binding for 1 hour at 37° C., monolayers were washed 4 times with HBSS/A, and bound antibody was eluted with 1% triton X-100 in PBS (200 μL/well) and counted. […]

P-selectin = assay: Surface P-selectin expression on hypoxic HUVECs (radiolabeled anti-PS antibody binding); format: cell-based, human
Protocol: (§1) Hypoxia or free radicals induce P-selectin (PS) translocation to the endothelial cell (EC) surface, where it participates in neutrophil (PMN) adhesion during reperfusion. To explore a mechanism whereby nitrovasodilators may attenuate postischemic leukosequestration, we tested whether stimulating the NO/cGMP pathway could attenuate surface PS expression in hypoxic human umbillical vein ECs. […] Under similar conditions, addition of the NO donor 3-morpholino sydnonimine (SIN-1, 0.1 mM) or the cGMP analog 8-Bromo-cGMP (cGMP, 10 nM) caused a reduction in vWF release; Control vWF, 11±0.4 mU/mL; SIN-1, 9.1±0.3 mU/mL; cGMP, 9.7±0.2 mU/mL; p<0.005 for both SIN-1 or cGMP vs Control.

hypoxic HUVECs = assay: Immunofluorescent adherence assay, HL60 binding to hypoxic HUVECs; format: cell-based, human
Protocol: as §1

[2] = test system: hypoxic human umbillical vein ECs; assay: vWF release from hypoxic HUVECs, NO/cGMP pathway; format: cell-based; conditions: hypoxia pO2<20 Torr 4 hours; SIN-1 0.1 mM, 8-Bromo-cGMP 10 nM
Protocol: as §1

[3] = test system: lung ischemia (lung preservation for transplantation); assay: Rat orthotopic left lung transplantation after 6 h preservation, donor CO pretreatment; format: in vivo
Protocol: Inbred male Lewis rats (250-300 gms) were used for all experiments according to a protocol approved by the Institutional Animal Care and Use Committee at Columbia University, in accordance with guidelines set forth by the American Academy for Accreditation of Laboratory Animal Care (AAALAC). Lung transplant experiments were performed in the following manner. Donor rats were given 500 units of heparin intravenously, and the pulmonary artery (PA) was flushed with a 30 mL volume of 4° C. preservation solution at a constant pressure of 20 mm Hg. When lungs are preserved in this manner, most of the infused flush solution comes out of a left atrial vent created in the lung donor, as well as out of the pulmonary veins following transection.
The left lung was then harvested, a cuff was placed on each vascular stump, a cylinder was inserted into the bronchus, and the lung was submerged for 6 hours in 4° C. preservation solution which was identical to the PA flush solution. Gender/strain/size matched rats were anesthetized, intubated, and ventilated with 100% O2 using a rodent ventilator (Harvard Apparatus, South Natick, Mass.). Orthotopic left lung transplantation was performed through a left thoracotomy using a rapid cuff technique for all anastomoses, with warm ischemic times maintained below 5 minutes. The hilar cross-clamp was released, re-establishing blood flow and ventilation to the transplanted lung. A snare was then passed around the right PA, and Millar catheters (2F; Millar Instruments, Houston, Tex.) were introduced into the main PA and the left atrium (LA). A Doppler flow probe (Transonics, Ithaca, N.Y.) was placed around the main PA.
Online hemodynamic monitoring was accomplished using MacLab and a Macintosh IIci computer. Measured hemodynamic parameters included LA and PA pressures (mm Hg), and PA flow (mL/min). Arterial oxygen tension (pO2, mm Hg) was measured during inspiration of 100% O2 using a model ABL-2 gas analyzer (Radiometer, Copenhagen, Denmark). PVRs were calculated as (mean PA pressure—LA pressure)/mean PA flow and expressed as mm Hg/mL/min. After baseline measurements, the native right PA was ligated and serial measurements taken every five minutes until the time of euthanasia at 30 minutes (or until recipient death).
At the indicated time before surgery (4,8, or 12 hours), rats were placed in a bell jar, and carbon monoxide was administered at various concentrations (0.01%, 0.03%, or 0.1%), with the remainder of the gas mixture consisting of room air. (The gas was passed through a jar of water prior to administration, in order to humidify it for animal comfort). At the indicated times following initiation of exposure, rats were anesthetized and lungs harvested as described above. These donor lungs were used in subsequent lung transplant experiments.

[4] = CO-pretreated donor lungs vs untreated controls

In the case of streptokinase, the “rate of hemorrhagic transformation” value (acute ischemic stroke; given in the first several (<6) hours following stroke onset) is given as “up to 67%”, the 6 month mortality (acute ischemic stroke; outside the therapeutic window) is given as 73% and the 10 day mortality (acute ischemic stroke; outside the therapeutic window) is given as 34.0%.

For `C=CC1=C(C)c2cc3[n-]c(cc4[n-]c(cc5nc(cc1n2)C(C)=C5C=C)c(C)c4CCC(=O)O)c(CCC(=O)O)c3C.[Zn+2]` [zinc protoporphyrin IX], the infarct volume ([1]; heme oxygenase blockade) was “increase” and the mortality ([1]; heme oxygenase blockade) was “increase”.

For `O=C(O)CN(CCOCCOCCN(CC(=O)O)CC(=O)O)CC(=O)O` [EGTA, ethyleneglycol bis (aminoethylether) tetraacetic acid], the “H-induced EC release of vWF” value (Human umbilical vein ECs; 0 mM Ca++ with 2 mM EGTA, 8 hrs) was “even more suppressive effect”.

In the case of `CC(C)(Sc1cc(C(C)(C)C)c(O)c(C(C)(C)C)c1)Sc1cc(C(C)(C)C)c(O)c(C(C)(C)C)c1` [probucol], the “vWF levels following reoxygenation of hypoxic ECs” value (Human umbilical vein ECs; probucol 50 μM) is reported as “blunt the further increase in vWF levels”, the “effect on H-mediated exocytosis of Weibel-Palade bodies (vWF release)” value (Human umbilical vein ECs; probucol 50 μM added at onset of H) is reported as “no effect” and the “vWF in culture supernatant” value (Human umbilical vein ECs; probucol 50 μM added at onset of H, 6 hours of H) is reported as 4.7±0.31×10^−3 U/ml.

With `C=CC1=C(C)/C(=C/C2=NC(=C\c3[nH]c(/C=C4\NC(=O)C(C)=C4C=C)c(C)c3CCC(=O)O)/C(CCC(=O)O)=C2C)NC1=O` [Biliverdin, biliverdin] the “effect on stroke outcome (cerebral protection)” value ([1]; osmotic pump plus i.v. dose, total 0.061 mg) was “without effect”.

In the case of `N=c1c[n+](N2CCOCC2)[n-]o1` [SIN-1, 3-morpholino sydnonimine], the “PS expression in calcium-free medium” value (P-selectin; ECs in calcium-free medium) is reported as “Neither SIN-1 nor cGMP could further reduce PS expression”, the “decrease of surface PS expression vs controls” value (P-selectin; hypoxia 4 hours, SIN-1 0.1 mM, 8-Bromo-cGMP 10 nM) is reported as 40% and the “decrease of HL60 binding to hypoxic HUVECs vs controls” value (hypoxic HUVECs) is reported as 53%. The vWF release [2] was 9.1±0.3 mU/mL.

For `[C-]#[O+]` [carbon monoxide], the level of protection ([3]; 0.01% dose) was “least protection”, the level of protection ([3]; 0.03% dose) was “intermediate level of protection” and the level of protection ([3]; 0.1% dose) was “best protection”. For the same compound, the survival of recipients ([3]; CO-pretreated donor lungs vs controls) was “Improved survival”, the “arterial oxygenation of recipients” value [3, 4] was “Improved arterial oxygenation” and the “pulmonary arterial blood flow” value [3, 4] was “Increased pulmonary arterial blood flow”. For the same compound, the pulmonary vascular resistance [3, 4] was “reduced pulmonary vascular resistance”, the “time dependence of protection” value ([3]; exposure 4, 8 or 12 hours before surgery) was “longer exposures appeared to provide the greatest protection” and the “mortality at 24 hours” value ([1]; 0.1% CO inhaled for 12 hours before MCA occlusion) was “reduces mortality”. For the same compound, the cerebral infarct volume ([1]; 0.1% CO inhaled for 12 hours before MCA occlusion, 24 hours) was “reduces infarct volumes” and the “inhaled CO dose providing optimal protection (infarct volume)” value ([1]; dose-response of inhaled CO) was 0.1%.

For `C=CC1=C(C)C2=Cc3c(C=C)c(C)c4[n]3[Sn]([Cl])([Cl])[n]3c(c(C)c(CCC(=O)O)c3=CC3=NC(=C4)C(C)=C3CCC(=O)O)=CC1=N2` [tin protoporphyrin, Tin protoporphyrin IX dichloride], the infarct volume ([1]; heme oxygenase blockade) was “significantly larger infarct volumes”, the mortality ([1]; heme oxygenase blockade) was “increased mortality” and the neurological outcome ([1]; heme oxygenase blockade, vs untreated controls) was “worse neurological outcomes”. For the same compound, the “local CO levels by direct measurement” value ([1]; osmotic pump from 24 h before surgery plus i.v. dose) was “reduced local CO levels”.
